Data from patent publication US12018327B2, “Methods and compositions relating to epoxide hydrolase genes” (The Regents of the University of California, priority 2018, dated 2024).

Tests used:
autologous T cells = assay: Co-culture of 12,13 DiHOME treated DCs with autologous T cells, T cell subsets by flow cytometry; format: cell-based, human
Procedure: Co-culture of human DCs and T cells in the presence of 12,13 DiHOME was performed as previously described. In brief, DCs were isolated from the PBMCs of two healthy human donors and treated for five days with 130 μM 12,13 DiHOME solubilized in 0.2% DMSO or vehicle (0.2% DMSO) in the presence of 20 ng mL^−1 IL-4 (R&D Systems, Minneapolis, MN) and 10 ng mL^−1 GM-CSF (R&D Systems, Minneapolis, MN). Fresh treatment media was added every 48 hrs throughout the course of the study. Eighteen hours prior to co-culture, DCs were stimulated with 10 ng mL^−1 TNFα, IL1β, and IL-6 (Peprotech, Rocky Hill, NJ) and 1 mM prostaglandin E2 (Stemcell Technologies, Cambridge, MA). DCs were subsequently washed and co-cultured with autologous T cells in the presence of 10 ng mL^−1 anti-CD28 and anti-CD49d (BD Bioscience, San Jose, CA).
After five days of co-culture, T cell subsets were analyzed by flow cytometry. To assess cytokine secretion, cells were stimulated for 16 hrs with Phorbol Myristate Acetate-Ionomycin (ACROS, Morris Planes, NJ) and GolgiPlug (Gplug; BD Biosciences, San Jose, CA). Flow cytometry data was collected on a BD LSR II flow cytometer. Helper T cell subsets were defined as follows: Th1 CD3+CD4+IFNγ+; Th2 CD3+CD4+IL-4+; Th17 CD3+CD4+IL-17+, Treg CD3+CD4+CD25+FoxP3+. The human T cell gating strategy can be found in FIG. 4D.

human DCs = assay: Gene expression in human DCs by qPCR; format: cell-based; conditions: 130 μM, two days; relative to beta-actin
Procedure: Gene expression was examined in human DCs. DCs were isolated as described above and treated for two days with 130 μM 12,13 DiHOME. Cells were washed twice in PBS, and RNA was extracted using the RNAqueous™ Micro Kit (Ambion, Foster City, CA). The RT2 First Strand Kit (Qiagen, Germantown, MD) was used to synthesize cDNA, and expression of CD36, CD1a, FABP4, and HADH relative to beta-actin was measured using Power SYBR Green PCR Master Mix (ThermoFisher Scientific, Waltham, MA) and a QuantStudio 6 Real-Time PCR system (ThermoFisher Scientific, Waltham, MA).

PPARγ = assay: PPARγ-activated luciferase reporter assay in Raw264.7 cells; format: cell-based; conditions: 24 hours after treatment
Procedure: A modified PPARγ luciferase assay was performed as described in Ye et. al.. A PPRE-luciferase reporter plasmid, PPRE X3-TK-luc from Bruce Spiegelman (Plasmid #1015; Addgene, Cambridge, MA), and a PPARγ overexpression plasmid, pGST-PPARgamma from Bert Vogelstein (Plasmid #16549; Addgene, Cambridge, MA), were ordered from Addgene and purified with the Plasmid Plus Maxi Kit (Qiagen, Germantown, MD). Raw264.7 cells grown in R10 media (Roswell Park Memorial Institute (RPMI) media 1640 with 10% heat-inactivated Fetal Bovine SerμMand 2 mM L-glutamine and 100 U mL^−1 penicillin—streptomycin) were transfected with the PPRE-reporter, PPARγ, and Renilla luciferase plasmid DNA in a 1:20:40 ratio, using 50 ng/well of reporter plasmid DNA. Fugene HD Transfection reagent (Promega, Madison, WI) was combined with plasmid DNA in a 4:1 ratio, and the total volume was brought to 5 μL/well with RPMI. The transfection mixture was gently combined with dilute Raw264.7 cells and plated in black, clear-bottom, 96-well plates at a density of 50,000 cells per well. […] Twenty-four hours after treatment luciferase and Renilla luminescence were measured using the Dual-Glo Luciferase Assay kit (Promega, Madison, WI) on a Cytation 3 plate reader (BioTek Instruments, Winooski, VT).

CCCCCC(O)C(O)C/C=C\CCCCCCCC(=O)O (centres unmarked) [12,13 DiHOME]
cell viability (autologous T cells; DC and T cell co-culture): without decreasing
distribution of helper T cells (autologous T cells; DCs treated with 130 μM): significant shift
frequency of Tregs (CD3+CD4+CD25+FoxP3+) (autologous T cells; DCs treated with 130 μM): specific decrease
expression of CD1a (RNA) (human DCs): significant decrease
expression of CD36 (RNA) (human DCs): significant increases
expression of FABP4 (RNA) (human DCs): significant increases
expression of HADH (RNA) (human DCs): significant increases
concentrations that lead to PPARγ activation (PPARγ): > 50 µM
